Measurements taken from PubChem BioAssay AID252 (DTP/NCI, 2004).
Where “and” joins values, the source holds several entries; their conditions need not be identical. Equal entries are not always repeated. Inconclusive results and toxic doses are left out.

Test system: BDF1 mice, intracerebral L1210 leukemia, survival T/C
Assay: NCI In Vivo Anticancer Drug Screen. Data for tumor model L1210 Leukemia (intracerebral) in B6D2F1 (BDF1) mice
Conditions: endpoint: mean survival time, higher = longer survival
In short: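 Mice carrying transplanted tumour were dosed with compound; survival was recorded and expressed as treated-group value (T) divided by vehicle-control value (C).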

[1] = dose: 1.0 mg/kg/injection, schedule: Q01DX009 (ip), vehicle: saline
[2] = dose: 9.0 mg/kg/injection, schedule: Q01DX001 (ip), vehicle: carboxymethylcellulose (CMC)
[3] = dose: 375.0 mg/kg/injection, schedule: Q01DX001 (ip), vehicle: other
[4] = dose: 18.0 mg/kg/injection, schedule: Q01DX001 (ip), vehicle: carboxymethylcellulose (CMC)
[5] = dose: 8.0 mg/kg/injection, schedule: Q01DX001 (ip), vehicle: carboxymethylcellulose (CMC)
[6] = dose: 12.0 mg/kg/injection, schedule: Q01DX001 (ip), vehicle: carboxymethylcellulose (CMC)

SMILES: O=NN(CCCl)C(=O)Nc1ccc2c(c1)CCCC2
- T/C (dose: 125.0 mg/kg/injection, schedule: Q01DX001 (ip), vehicle: carboxymethylcellulose (CMC)): 157 % of control
- T/C (dose: 178.0 mg/kg/injection, schedule: Q01DX001 (ip), vehicle: carboxymethylcellulose (CMC)): 150 % of control
- T/C (dose: 187.0 mg/kg/injection, schedule: Q01DX001 (ip), vehicle: carboxymethylcellulose (CMC)): 97 % of control
- T/C (dose: 238.0 mg/kg/injection, schedule: Q01DX001 (ip), vehicle: carboxymethylcellulose (CMC)): 100 % of control

SMILES: N=[N+]=CC(=O)OCC(N)C(=O)O (stereo not drawn)
- T/C (dose: 43.0 mg/kg/injection, schedule: Q01DX001 (ip), vehicle: saline): 104 % of control
- T/C (dose: 66.0 mg/kg/injection, schedule: Q01DX001 (ip), vehicle: saline): 101 % of control

SMILES: CCCC(=O)NC1=C(N2CC2)C(=O)C(NC(=O)CCC)=C(N2CC2)C1=O
- T/C [1]: 105 % of control
- T/C (dose: 4.0 mg/kg/injection, schedule: Q01DX009 (ip), vehicle: saline): 152 % of control
- T/C (dose: 8.0 mg/kg/injection, schedule: Q01DX009 (ip), vehicle: saline): 89 % of control

SMILES: C[C@@H]1CN1C1=CC(=O)C(N2C[C@H]2C)=CC1=O
- T/C (dose: 8.0 mg/kg/injection, schedule: Q01DX009 (ip), vehicle: Klucel (hydroxypropylcellulose) (HPC)): 95 % of control

SMILES: O=NN(CCCl)C(=O)Nc1ccc(CC(=O)O)cc1
- T/C (dose: 6.0 mg/kg/injection, schedule: Q01DX001 (ip), vehicle: carboxymethylcellulose (CMC)): 104 % of control
- T/C [2]: 106 % of control
- T/C (dose: 13.0 mg/kg/injection, schedule: Q01DX001 (ip), vehicle: carboxymethylcellulose (CMC)): 110 % of control
- T/C (dose: 26.0 mg/kg/injection, schedule: Q01DX001 (ip), vehicle: carboxymethylcellulose (CMC)): 104 % of control

SMILES: CC(C)(Cc1ccccc1)NC(=O)N(CCCl)N=O
- T/C [3]: 122 % of control
- T/C (dose: 500.0 mg/kg/injection, schedule: Q01DX001 (ip), vehicle: other): 114 % of control

SMILES: COc1ccc2c(Nc3ccc(NS(C)(=O)=O)cc3)c3ccccc3nc2c1
- T/C (dose: 6.25 mg/kg/injection, schedule: Q01DX009 (ip), vehicle: saline): 106 % of control
- T/C (dose: 6.25 mg/kg/injection, schedule: Q01DX009 (sc), vehicle: saline): 104 % of control
- T/C (dose: 12.5 mg/kg/injection, schedule: Q01DX009 (ip), vehicle: saline): 102 % of control
- T/C (dose: 12.5 mg/kg/injection, schedule: Q01DX009 (sc), vehicle: saline): 100 % of control
- T/C (dose: 25.0 mg/kg/injection, schedule: Q01DX009 (sc), vehicle: saline): 106 % of control
- T/C (dose: 50.0 mg/kg/injection, schedule: Q01DX009 (sc), vehicle: saline): 88 % of control

SMILES: N[C@@H](Cc1ccc(N(CCCl)CCCl)cc1)C(=O)O
- T/C [1]: 111 % of control
- T/C (dose: 1.0 mg/kg/injection, schedule: Q01DX Z (ip), vehicle: carboxymethylcellulose (CMC)): 98 % of control
- T/C (dose: 1.13 mg/kg/injection, schedule: Q01DX001 (ip), vehicle: carboxymethylcellulose (CMC)): 104 % of control and 97 % of control
- T/C (dose: 2.0 mg/kg/injection, schedule: Q01DX009 (ip), vehicle: saline): 114 % of control
- T/C (dose: 2.0 mg/kg/injection, schedule: Q01DX Z (ip), vehicle: carboxymethylcellulose (CMC)): 111 % of control
- T/C (dose: 2.25 mg/kg/injection, schedule: Q01DX001 (ip), vehicle: carboxymethylcellulose (CMC)): 103 % of control and 104 % of control
- T/C (dose: 3.0 mg/kg/injection, schedule: Q01DX001 (ip), vehicle: carboxymethylcellulose (CMC)): 103 % of control and 108 % of control
- T/C (dose: 4.5 mg/kg/injection, schedule: Q01DX001 (ip), vehicle: carboxymethylcellulose (CMC)): 104 % of control and 110 % of control
- T/C (dose: 8.0 mg/kg/injection, schedule: Q01DX Z (ip), vehicle: carboxymethylcellulose (CMC)): 102 % of control
- T/C [2]: 119 % of control and 120 % of control
- T/C (dose: 12.5 mg/kg/injection, schedule: Q01DX Z (ip), vehicle: carboxymethylcellulose (CMC)): 111 % of control and 88 % of control
- T/C (dose: 14.0 mg/kg/injection, schedule: Q01DX001 (ip), vehicle: carboxymethylcellulose (CMC)): 155 % of control
- T/C [4]: 122 % of control
- T/C (dose: 25.0 mg/kg/injection, schedule: Q01DX Z (ip), vehicle: carboxymethylcellulose (CMC)): 88 % of control
- T/C (dose: 29.0 mg/kg/injection, schedule: Q01DX001 (ip), vehicle: carboxymethylcellulose (CMC)): 115 % of control

SMILES: CCN(CC)c1ccc2cc3ccc(=[N+](CC)CC)cc-3oc2c1
- T/C (dose: 8.0 mg/kg/injection, schedule: Q01DX001 (ip), vehicle: saline): 97 % of control
- T/C (dose: 13.0 mg/kg/injection, schedule: Q01DX001 (ip), vehicle: saline): 96 % of control
- T/C (dose: 19.0 mg/kg/injection, schedule: Q01DX001 (ip), vehicle: saline): 100 % of control

SMILES: O=NN(CCCl)C(=O)NC1CCS(=O)(=O)CC1
- T/C (dose: 7.5 mg/kg/injection, schedule: Q01DX001 (ip), vehicle: carboxymethylcellulose (CMC)): 212 % of control
- T/C [5]: 171 % of control and 172 % of control
- T/C (dose: 11.4 mg/kg/injection, schedule: Q01DX001 (ip), vehicle: carboxymethylcellulose (CMC)): 289 % of control
- T/C [6]: 197 % of control and 281 % of control
- T/C (dose: 17.0 mg/kg/injection, schedule: Q01DX001 (ip), vehicle: carboxymethylcellulose (CMC)): 298 % of control
- T/C [4]: 151 % of control and 251 % of control
- T/C (dose: 25.0 mg/kg/injection, schedule: Q01DX001 (ip), vehicle: carboxymethylcellulose (CMC)): 151 % of control
- T/C (dose: 27.0 mg/kg/injection, schedule: Q01DX001 (ip), vehicle: carboxymethylcellulose (CMC)): 88 % of control
- T/C (dose: 37.0 mg/kg/injection, schedule: Q01DX001 (ip), vehicle: carboxymethylcellulose (CMC)): 90 % of control

SMILES: O=NN(CCBr)C(=O)NC1CCCCC1
- T/C (dose: 137.0 mg/kg/injection, schedule: Q01DX001 (ip), vehicle: carboxymethylcellulose (CMC)): 108 % of control
- T/C (dose: 345.0 mg/kg/injection, schedule: Q01DX001 (ip), vehicle: carboxymethylcellulose (CMC)): 224 % of control

SMILES: O=C(Nc1ccc(C2=NCCN2)cc1)c1ccc(C(=O)Nc2ccc(C3=NCCN3)cc2)cc1
- T/C (dose: 50.0 mg/kg/injection, schedule: Q01DX Z (ip), vehicle: carboxymethylcellulose (CMC)): 107 % of control
- T/C (dose: 100.0 mg/kg/injection, schedule: Q01DX Z (ip), vehicle: carboxymethylcellulose (CMC)): 110 % of control
- T/C (dose: 200.0 mg/kg/injection, schedule: Q01DX Z (ip), vehicle: carboxymethylcellulose (CMC)): 121 % of control
- T/C (dose: 250.0 mg/kg/injection, schedule: Q01DX Z (ip), vehicle: carboxymethylcellulose (CMC)): 116 % of control
- T/C (dose: 375.0 mg/kg/injection, schedule: Q01DX Z (ip), vehicle: carboxymethylcellulose (CMC)): 97 % of control

SMILES: C=CCNC(=O)NCC=C
- T/C (dose: 25.0 mg/kg/injection, schedule: Q01DX009 (ip), vehicle: saline): 101 % of control
- T/C (dose: 50.0 mg/kg/injection, schedule: Q01DX009 (ip), vehicle: saline): 103 % of control
- T/C (dose: 100.0 mg/kg/injection, schedule: Q01DX009 (ip), vehicle: saline): 97 % of control
- T/C (dose: 200.0 mg/kg/injection, schedule: Q01DX009 (ip), vehicle: saline): 105 % of control

SMILES: CCOC(=O)C1(NC(=O)N(CCCl)N=O)CCCC1
- T/C (dose: 74.0 mg/kg/injection, schedule: Q01DX001 (ip), vehicle: other): 116 % of control
- T/C (dose: 108.0 mg/kg/injection, schedule: Q01DX001 (ip), vehicle: other): 119 % of control
- T/C (dose: 110.0 mg/kg/injection, schedule: Q01DX001 (ip), vehicle: other): 118 % of control
- T/C (dose: 168.0 mg/kg/injection, schedule: Q01DX001 (ip), vehicle: other): 152 % of control
- T/C (dose: 250.0 mg/kg/injection, schedule: Q01DX001 (ip), vehicle: other): 174 % of control and 275 % of control
- T/C (dose: 370.0 mg/kg/injection, schedule: Q01DX001 (ip), vehicle: other): 152 % of control
- T/C [3]: 124 % of control

SMILES: CCOC(=O)C(CC(C)C)NC(=O)C(Cc1ccc(N(CCCl)CCCl)cc1)NC(C)=O (stereo not drawn)
- T/C (dose: 2.0 mg/kg/injection, schedule: Q01DX009 (ip), vehicle: DMSO): 90 % of control
- T/C (dose: 4.0 mg/kg/injection, schedule: Q01DX009 (ip), vehicle: DMSO): 92 % of control

SMILES: O=NN(CCCl)C(=O)Nc1ccccc1
- T/C [5]: 97 % of control
- T/C [6]: 101 % of control
- T/C [4]: 107 % of control and 96 % of control
- T/C (dose: 36.0 mg/kg/injection, schedule: Q01DX001 (ip), vehicle: carboxymethylcellulose (CMC)): 95 % of control
- T/C (dose: 72.0 mg/kg/injection, schedule: Q01DX001 (ip), vehicle: carboxymethylcellulose (CMC)): 93 % of control

SMILES: CCCCCCC(=O)NC1=C(N2CC2)C(=O)C(NC(=O)CCCCCC)=C(N2CC2)C1=O
- T/C (dose: 20.0 mg/kg/injection, schedule: Q01DX009 (ip), vehicle: Klucel (hydroxypropylcellulose) (HPC)): 100 % of control
- T/C (dose: 40.0 mg/kg/injection, schedule: Q01DX009 (ip), vehicle: Klucel (hydroxypropylcellulose) (HPC)): 105 % of control
- T/C (dose: 80.0 mg/kg/injection, schedule: Q01DX009 (ip), vehicle: Klucel (hydroxypropylcellulose) (HPC)): 120 % of control
- T/C (dose: 160.0 mg/kg/injection, schedule: Q01DX009 (ip), vehicle: Klucel (hydroxypropylcellulose) (HPC)): 106 % of control
